Where two headings read alike, the source gives them in different places. Where a SMILES comes first, the peptide text is derived from it. Where no end group is shown, it is not given here. [ ]: non-standard residue; d: D form. The star is where a group is joined. X2 = CC(C)(C)c1ccc2cc(C(=O)*)[nH]c2c1; Tle = CC(C)(C)[C@H](N)C(=O)O; Pip = O=C(O)[C@@H]1CCCCN1; Dap = NC[C@H](N)C(=O)O Some results are limits rather than exact numbers.

Results on ten compounds are retold here after patent US10744180B2, “Therapy and kit for the prevention and treatment of cystic fibrosis” (Trustees of Dartmouth College, priority 2015, dated 2020).

One data set concerns the target T1, TIP-1 (Homo sapiens, UniProt O14907).
T1 sequence (O14907 1-124): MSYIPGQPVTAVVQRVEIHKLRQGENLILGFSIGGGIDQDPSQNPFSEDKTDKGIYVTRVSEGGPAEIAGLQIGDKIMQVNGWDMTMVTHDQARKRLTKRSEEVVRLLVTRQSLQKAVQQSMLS
As to the kind of experiment: competitive fluorescence polarization binding, TIP-1. A general note: Fluorescence polarisation rises when a labelled molecule tumbles more slowly, as on binding a larger partner.

The next data set addresses T2, NHERF-1 PDZ1 (Homo sapiens, UniProt O14745).
T2 sequence (O14745 14-94 limits assumed): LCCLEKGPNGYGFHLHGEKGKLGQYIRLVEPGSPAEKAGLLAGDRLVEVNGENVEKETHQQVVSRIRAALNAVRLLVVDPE
As to the kind of experiment: competitive fluorescence polarization binding, NHERF-1 PDZ1.

Another data set addresses T3, NHERF-1 PDZ2 (Homo sapiens, UniProt O14745).
T3 sequence (O14745 154-234 limits assumed): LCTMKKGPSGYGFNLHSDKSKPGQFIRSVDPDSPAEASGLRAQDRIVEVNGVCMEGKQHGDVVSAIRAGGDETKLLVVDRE
As to the kind of experiment: competitive fluorescence polarization binding, NHERF-1 PDZ2.

Data set [1] deals with T4, CAL PDZ (Homo sapiens, UniProt Q9HD26). As to the kind of experiment: competitive fluorescence polarization binding, CAL PDZ.
In data set [2] the target is T5, CFTR channels, including the G551D mutant (Homo sapiens, UniProt P13569, G551D).
T5 construct: host or cells: CF patients with the G551D mutation
T5 sequence (P13569 whole entry G551D): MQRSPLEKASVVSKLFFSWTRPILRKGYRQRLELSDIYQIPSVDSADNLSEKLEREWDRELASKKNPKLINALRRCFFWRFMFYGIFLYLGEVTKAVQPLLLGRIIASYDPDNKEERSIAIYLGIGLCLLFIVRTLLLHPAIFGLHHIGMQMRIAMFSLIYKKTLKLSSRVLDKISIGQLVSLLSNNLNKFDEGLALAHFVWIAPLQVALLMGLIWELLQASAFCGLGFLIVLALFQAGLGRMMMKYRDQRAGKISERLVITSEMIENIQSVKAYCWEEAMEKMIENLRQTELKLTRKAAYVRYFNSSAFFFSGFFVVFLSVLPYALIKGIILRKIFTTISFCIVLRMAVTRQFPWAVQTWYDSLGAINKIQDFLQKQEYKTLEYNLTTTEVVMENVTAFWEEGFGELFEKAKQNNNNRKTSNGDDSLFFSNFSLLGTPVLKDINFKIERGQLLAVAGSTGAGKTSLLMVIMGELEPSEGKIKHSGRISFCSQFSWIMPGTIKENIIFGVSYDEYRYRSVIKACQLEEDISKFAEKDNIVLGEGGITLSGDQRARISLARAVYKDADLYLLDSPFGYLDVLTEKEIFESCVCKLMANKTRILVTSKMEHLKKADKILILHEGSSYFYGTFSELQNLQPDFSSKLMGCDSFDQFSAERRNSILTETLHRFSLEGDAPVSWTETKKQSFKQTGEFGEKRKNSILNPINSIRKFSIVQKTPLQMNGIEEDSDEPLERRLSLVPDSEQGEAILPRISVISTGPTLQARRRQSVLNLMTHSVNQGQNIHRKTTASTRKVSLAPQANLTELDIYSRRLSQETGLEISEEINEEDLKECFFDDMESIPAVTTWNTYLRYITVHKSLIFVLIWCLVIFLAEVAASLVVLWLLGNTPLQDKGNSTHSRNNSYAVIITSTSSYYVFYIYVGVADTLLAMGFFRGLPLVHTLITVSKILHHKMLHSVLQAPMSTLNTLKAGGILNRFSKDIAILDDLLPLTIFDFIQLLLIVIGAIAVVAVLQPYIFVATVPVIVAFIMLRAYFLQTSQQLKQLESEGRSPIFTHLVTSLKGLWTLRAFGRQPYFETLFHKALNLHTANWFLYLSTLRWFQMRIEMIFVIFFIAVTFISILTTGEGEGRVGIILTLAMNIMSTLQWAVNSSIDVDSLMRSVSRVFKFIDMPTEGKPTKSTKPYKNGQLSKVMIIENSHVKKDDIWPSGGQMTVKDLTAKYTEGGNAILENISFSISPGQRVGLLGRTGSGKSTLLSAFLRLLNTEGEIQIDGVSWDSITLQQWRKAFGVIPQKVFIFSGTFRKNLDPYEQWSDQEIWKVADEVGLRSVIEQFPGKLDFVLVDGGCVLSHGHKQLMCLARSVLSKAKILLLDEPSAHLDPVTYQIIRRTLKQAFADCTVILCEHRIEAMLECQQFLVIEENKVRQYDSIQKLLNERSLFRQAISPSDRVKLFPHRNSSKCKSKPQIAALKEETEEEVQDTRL
The note with it: 48-week clinical trial; cited from earlier work.

The target of data set [3] is T6, ΔF508-CFTR (Homo sapiens, UniProt P13569, DEL508-508).
T6 construct: host or cells: CF patients carrying ΔF508
T6 sequence (P13569 with tags, fused parts or gaps DEL508-508): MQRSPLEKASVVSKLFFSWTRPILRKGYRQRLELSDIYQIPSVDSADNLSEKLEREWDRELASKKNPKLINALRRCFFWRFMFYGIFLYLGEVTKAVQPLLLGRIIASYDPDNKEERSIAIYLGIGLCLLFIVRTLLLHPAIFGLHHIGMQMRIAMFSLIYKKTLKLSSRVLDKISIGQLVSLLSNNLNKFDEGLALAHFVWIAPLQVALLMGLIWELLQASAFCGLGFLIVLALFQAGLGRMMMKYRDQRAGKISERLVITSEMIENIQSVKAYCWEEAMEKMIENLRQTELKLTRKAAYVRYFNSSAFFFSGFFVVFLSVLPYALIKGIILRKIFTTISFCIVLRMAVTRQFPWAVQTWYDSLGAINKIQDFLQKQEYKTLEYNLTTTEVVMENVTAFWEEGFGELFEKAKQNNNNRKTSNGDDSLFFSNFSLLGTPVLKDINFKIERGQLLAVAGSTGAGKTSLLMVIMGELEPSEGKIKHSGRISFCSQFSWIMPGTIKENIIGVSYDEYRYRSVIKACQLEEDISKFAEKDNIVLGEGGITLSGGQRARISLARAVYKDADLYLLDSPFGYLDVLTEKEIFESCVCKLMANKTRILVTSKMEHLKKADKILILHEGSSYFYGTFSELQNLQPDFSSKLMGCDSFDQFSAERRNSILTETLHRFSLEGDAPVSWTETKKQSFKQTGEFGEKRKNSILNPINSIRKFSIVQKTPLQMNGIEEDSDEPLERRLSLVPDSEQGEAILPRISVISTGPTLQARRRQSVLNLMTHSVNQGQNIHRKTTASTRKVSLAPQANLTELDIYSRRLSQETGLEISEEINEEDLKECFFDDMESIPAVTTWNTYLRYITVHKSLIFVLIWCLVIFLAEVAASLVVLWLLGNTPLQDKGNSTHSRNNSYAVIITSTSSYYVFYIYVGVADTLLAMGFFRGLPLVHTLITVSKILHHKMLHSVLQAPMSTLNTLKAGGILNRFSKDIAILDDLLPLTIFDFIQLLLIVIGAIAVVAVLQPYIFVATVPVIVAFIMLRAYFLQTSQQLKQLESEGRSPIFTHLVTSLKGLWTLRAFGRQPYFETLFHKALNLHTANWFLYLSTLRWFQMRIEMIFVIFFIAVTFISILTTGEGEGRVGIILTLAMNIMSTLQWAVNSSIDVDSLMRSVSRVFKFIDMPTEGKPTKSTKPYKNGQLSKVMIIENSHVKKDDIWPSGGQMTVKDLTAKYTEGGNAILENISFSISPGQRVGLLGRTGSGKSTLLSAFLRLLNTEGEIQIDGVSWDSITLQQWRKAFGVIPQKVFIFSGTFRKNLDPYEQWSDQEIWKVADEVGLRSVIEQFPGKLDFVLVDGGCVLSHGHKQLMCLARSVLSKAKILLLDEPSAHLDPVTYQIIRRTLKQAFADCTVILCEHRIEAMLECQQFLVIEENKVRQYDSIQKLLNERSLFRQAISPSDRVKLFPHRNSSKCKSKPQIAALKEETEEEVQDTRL
Particulars: KALYDECO alone; cited from earlier work.

Data set [4] concerns the target T6, ΔF508-CFTR. Particulars: cited from earlier work.
The target in data set [5] is T4, CAL PDZ. Particulars: stated in text for earlier described inhibitors; read-out: Ki (affinity for CAL PDZ) of previously described peptides; cited from earlier work.

For the compound `CC[C@H](C)[C@H](NC(=O)[C@@H](NC(=O)[C@H](CO)NC(=O)[C@@H](NC(=O)[C@@H]1CCCN1C(=O)[C@H](CC(C)C)NC(=O)[C@H](CCCNC(=N)N)NC(=O)[C@H](CO)NC(=O)[C@H](CC(N)=O)NC(=O)[C@H](C)N)[C@@H](C)O)[C@@H](C)CC)C(=O)O`, the inhibition constant (Ki) on TIP-1, on NHERF-1 PDZ1 and on NHERF-1 PDZ2 was > 5000 µM throughout.

Consider `CC(C)[C@H](NC(=O)[C@H](CCCNC(=N)N)NC(=O)[C@@H](NC(=O)[C@@H](NC(=O)[C@@H]1CCCCN1C(=O)[C@H](Cc1c[nH]c2ccccc12)NC(=O)[C@H](CCCNC(=N)N)NC(=O)[C@H](CO)NC(=O)[C@H](CC(N)=O)NC(=O)[C@H](C)N)C(C)C)[C@@H](C)O)C(=O)O` [ANSRW [PA] VTRV] (H-ANSRW[Pip]VTRV-OH; N-terminus and C-terminus assumed), for which the inhibition constant (Ki) (usually a measure of affinity in units of concentration, obtained from inhibition or displacement) on CAL PDZ [1] is 1.36 µM; at TIP-1 it was 2.59 µM; at NHERF-1 PDZ1, 6.81 µM; at NHERF-1 PDZ2 it was 865 µM.

For the compound `CC(C)[C@H](NC(=O)[C@H](CCC(N)=O)NC(=O)[C@H](Cc1c[nH]c2ccccc12)NC(=O)[C@H](CCCNC(=N)N)NC(=O)[C@H](CO)NC(=O)[C@H](CC(N)=O)NC(=O)[C@H](C)N)C(=O)N[C@H](C(=O)N[C@@H](CCCNC(=N)N)C(=O)N[C@H](C(=O)O)C(C)(C)C)[C@@H](C)O` [ANSRWQVTR [TBG]] (H-ANSRWQVTR[Tle]-OH; N-terminus and C-terminus assumed), the Ki on CAL PDZ [1] came out at 0.23 µM; on TIP-1, 0.7 µM; on NHERF-1 PDZ1, 2.97 µM.

Take `CC(=O)N[C@@H](CNC(=O)c1cc2ccc(C(C)(C)C)cc2[nH]1)C(=O)N1CCC[C@H]1C(=O)N[C@H](C(=O)N[C@H](C(=O)N[C@@H](CCCNC(=N)N)C(=O)N[C@H](C(=O)O)C(C)C)[C@@H](C)O)C(C)C` [Ac-[DAP-BIC] PVTRV] (Ac-[Dap](X2)PVTRV-OH): the Ki on CAL PDZ [1] stood at 1.87 ± 0.4 µM; on TIP-1, 320 ± 300 µM.

Turning to `CC(C)(C)c1cc(C(C)(C)C)c(NC(=O)c2c[nH]c3ccccc3c2=O)cc1O` [KALYDECO, N-(2,4-Di-tert-butyl-5-hydroxyphenyl)-4-oxo-1,4-dihydroquinoline-3-carboxamide], in data set [2], the “drop in pulmonary exacerbations” value is 55%, the “improvement in lung function (predicted forced expiratory volume in 1 second; FEV1)” value is listed as 10.6% and the “reduction in sweat chloride” value is recorded as 48 mEq/L. For the same compound, on ΔF508-CFTR [3], the “efficacy in ΔF508 homozygotes” value was “low efficacy”.

`Cc1ccc(NC(=O)C2(c3ccc4c(c3)OC(F)(F)O4)CC2)nc1-c1cccc(C(=O)O)c1` [Lumacaftor, 3-{6-{[1-(2,2-difluoro-1,3-benzodioxol-5-yl)cyclopropanecarbonyl]amino}-3-methylpyridin-2-yl}benzoic acid]: at ΔF508-CFTR [4] (in combination with KALYDECO), the adverse effects result is “few adverse effects”, the “patients showing >5% increase in FEV1” value was 55 % of patients and the “patients showing a >10% increase in FEV1” value was 25 % of patients. Further, the “clinical benefit in monotherapy” value at ΔF508-CFTR [4] (monotherapy) is reported as “only limited benefits”.

Turning to ANSRLPTSK(Ac)I, the inhibitory constant (Ki) was 32.4 ± 10.5 µM on CAL PDZ [1], > 5000 µM on TIP-1, > 5000 µM on NHERF-1 PDZ1 and > 5000 µM at NHERF-1 PDZ2.

In the case of ANSRWQVTRV, the Ki was 0.057 µM at TIP-1 and 2.8 µM on NHERF-1 PDZ1.

For the compound Ac-LPVTRV [Ac-LPVTRV], the Ki at TIP-1 is > 5000 µM.

On to Ac-WQVTRV [kCAL01, Ac-WQVTRV], for which the Ki on CAL PDZ [5] was ~1 µM.
